# Entries after “also recorded” stand apart in the source; their conditions may differ.
# Experiments:
# [1] = system: SiHa human cervical cell line; assay: In vitro cytotoxicity (SRB growth inhibition) assay, SiHa; type: cell-based; set-up: dose or concentration left out as unconfirmed; details: 72 h
# Protocol: (§1) The SHetA2, SHetA3, SHetA4, SHet50 and 9-cis-RA compounds were evaluated in 4 cervical carcinoma cell lines. The SiHa, CC-1 and C33a human cervical cell lines were maintained in Minimal Essential Media (MEM) containing Earle's salts and L-glutamine supplemented with nonessential amino acids, 1% sodium pyruvate, 10% fetal bovine serum (FBS) and antibiotic/antimycotic. The HT-3 cervical carcinoma cell line was cultured in McCoy's 5a medium supplemented with 10% FBS and antibiotic/antimycotic. Cells were inoculated into 96 well microtiter plates at densities of 1000 cells/well and incubated for 24 h prior to addition of drugs. Drugs were dissolved in dimethyl sulfoxide (DMSO) and diluted in complete medium, prior to addition to triplicate culture wells to achieve final concentrations of […]. Following drug addition, the plates were incubated for 72 h. The assay was terminated by the addition of cold TCA and the cells were stained with 0.4% sulforhodamine B (SRB) in 1% acetic acid. Bound stain was subsequently solubilized with 10 mM trizma base, and the absorbance was read on an automated plate reader at a wavelength of 560 nm. Growth inhibition was determined by dividing the average Optical Density (OD) of the triplicated treated cultures by the average OD of the triplicate control cultures treated with DMSO solvent only. This ratio was converted into a percentage by multiplying by 100. The potency (concentration required to induce half of the maximal activity—GI50) were derived from dose-response graphs generated with results from 3 to 5 individual experiments using GraphPad Software.
# [2] = system: CC-1 human cervical cell line; assay: In vitro cytotoxicity (SRB growth inhibition) assay, CC-1; type: cell-based; set-up: dose or concentration left out as unconfirmed; details: 72 h
# Protocol: as §1
# [3] = system: Raldh2 −/− embryos; assay: Rescue of Raldh2 −/− embryos and teratogenesis; type: in vivo, mouse; details: for No. of −/− unrescued / Teratogenesis (no. of embryos) / No. of −/− rescued: E10.25 embryos
# Protocol: Dosages varied from 0.025 to 25 mg/kg.
# [4] = system: C33a human cervical cell line; assay: In vitro cytotoxicity (SRB growth inhibition) assay, C33a; type: cell-based; set-up: dose or concentration left out as unconfirmed; details: 72 h
# Protocol: as §1
# [5] = system: ovarian carcinoma organotypic cultures; assay: Organotypic culture model of ovarian tumors; type: cell-based, human; details: 1 μM retinoid in media; 3, 7 or 14 days
# Protocol: FIG. 17. Retinoid effects on ovarian carcinoma organotypic cultures. Organotypic cultures of OVCAR-3 (A, B, E, F, I and J), Caov-3 (C and G), SK-OV-3 (D and H), and O2 (K and L) were grown in the absence (−, top row and K) or presence (+, middle row and I, J and L) of retinoid HetA4 at a concentration of 1 μM in the media. All sections were stained with H&E except for I, which was stained with PAS to detect glycoproteins and glandular differentiantion, and J, which was stained with the TUNEL assay to detect apoptosis. All magnifications are 40×.
# To test our hypotheses, we evaluated the effects of clinically achievable concentrations of 4-HPR and Flex-Hets on growth, differentiation and apoptosis in ovarian tissue. A series of compounds with a variety of receptor activation profiles were evaluated. In order to evaluate therapeutic effects, we developed an organotypic culture model of ovarian tumors by growing established cell lines and primary cultures inside collagen gels. Monolayer cultures of cells are not accurate representations of in vivo tissue because they lack the types of interactions that cells have with other cells and with the extracellular matrix in vivo. These interactions are known to influence gene expression and thus the constitution and behavior of cells. In our organotypic model, the growth of tumor cells inside the collagen allows a representation of tumors that have invaded stromal tissue. In the presence of fibroblasts, established cell lines and primary cultures of ovarian cancer formed colonies inside the collagen, while normal or benign ovarian epithelial cells remained as single cells inside the collagen. Human ovarian cancer cell lines (OVCAR-3, Caov-3, SK-OV-3, A2780, UCI 101) and primary human cultures (borderline ovarian tumor (O1), serous papillary tumor (O2), benign ovarian cyst (O3)) were cultured inside and on top of a collagen gel seeded with 3T3 fibroblasts for one week. After further incubation in the presence or absence of 1 μM retinoid (media concentration) for 3, 7 or 14 days, cultures were fixed and sectioned for immunohistochemical analysis.
# [6] = system: HT-3 cervical carcinoma cell line; assay: In vitro cytotoxicity (SRB growth inhibition) assay, HT-3; type: cell-based, human; set-up: dose or concentration left out as unconfirmed; details: 72 h
# Protocol: as §1
# [7] = system: dorsal skin of female Skh hairless mice; assay: Topical irritancy; type: in vivo; details: topical on dorsal skin for 4 days; 2-log concentration dose range
# Protocol: Female Skh hairless mice, 6-8 weeks old, were treated topically on the dorsal skin for 4 days over a 2-log concentration dose range with various compounds. Retinoic acid receptor-Hets were evaluated in A, while retinoic acid receptor-independent Flex-Hets were evaluated in B. Daily flaking and abrasion scores were combined to calculate a single cutaneous toxicity score for each mouse. Each treatment group consisted of 4 mice, and group averages were used to plot cutaneous toxicity against doses of the compounds.
# Topical irritancy was evaluated according to published procedures (29). Briefly, female Skh hairless mice, 6-8 weeks old, were treated topically on the dorsal skin for 4 days over a 2-log concentration dose range with various compounds. Daily flaking and abrasion scores were combined to calculate a single cutaneous toxicity score for each mouse. Each treatment group consists of 4 mice, and group averages are used to plot cutaneous toxicity against dose of the retinoid compound.
# [8] = Alanine aminotransferase (ALT) activity in plasma of mice; type: in vivo, mouse; details: end of treatment, 10 mg/kg/day by gavage
# Protocol: At the end of the treatment period, blood was drawn from each animal. Plasma was separated by centrifugation and stored at −70° C. The activity of ALT was determined in aliquots of plasma by standard spectrophotometric enzymatic techniques which are based on the reduction of pyruvate by lactate dehydrogenase (28). The method measures NADH disappearance with time of incubation at 37° C. The activities are expressed as mm/L/min. Two different amounts of plasma were used in each assay to assure measurement of the maximum rate.
# [9] = system: OVCAR-3 xenograft tumors; assay: OVCAR-3 xenograft tumor animal model, tumor growth; type: in vivo, mouse; details: 10 mg/kg/day by gavage, 5 days/week, 4 weeks; t-test on day 29
# Protocol: Groups of 5 mice bearing OVCAR-3 xenografted tumors were gavaged daily with the indicated drugs in sesame oil (▪ closed square) or with sesame oil alone (∘ open circle). Tumor volumes were measured in 3 dimensions with calipers weekly. Each data point represents the average and standard error of the tumor volumes on the indicated treatment day relative to the tumor volume on day zero. Nu/nu mice were injected subcutaneously with one million OVCAR-3 cells and arbitrarily divided into five groups of six mice each. After three weeks of tumor growth, the animals were gavaged with sesame oil, 10 mg/kg/day 4-HPR, or the indicated Het five times per week for four weeks and the tumors were measured once per week. The tumor sizes were averaged and divided by the average size for each group on the day that treatment was initiated (day 0).
# The OVCAR-3 cultures were maintained in RPMI media supplemented with 10% fetal bovine serum. All animal experimentation described in this manuscript was conducted in accord with accepted standards of humane animal care. Twenty-five female NU/NU CD-1 female mice (Charles Rivers Laboratories) were housed in a laminar flow room under sterile conditions at 83-85° F. The mice were quarantined for one week prior to the beginning of the study and were allowed access to autoclaved food (Purina 5001 mouse/rat sterilizable diet, St. Louis, Mo.) and water ad libitum. OVCAR-3 cells in log phase growth were harvested by trypsinization, resuspended in RPMI culture medium, and centrifuged at 3,000 rpm for 10 min. The pellets were resuspended in RPMI culture medium at a concentration of 7×10^6 cells/ml before implantation into mice. Animals were injected with 3.5×10^6 cells into the right scapular region with a 24-gauge needle/1 cc tuberculin syringe. Twenty-four hours after tumor implantation, animals were randomized into 5 groups of 5 animals each.
# The Hets SHet50, SHetA2 and SHetA4 were synthesized and their receptor specificity determined as previously described (17,19). The 4-HPR compound was a gift from R.W. Johnson Pharmaceutical Research Institute, Raritan, N.J. All retinoids were dissolved in super refined sesame oil (Croda, Inc., Parsippany, N.J.) and stored at −80° C. Since the retinoids are light sensitive, all manipulations involving retinoids were performed under subdued lighting. […] Tumors were measured with calipers weekly, and tumor volumes were calculated using the formula: volume=length×width×height. Tumor growth was determined by the dividing the volume of the tumor at each weekly measurement by the volume on the first day of treatment. Animal weights and clinical signs of overall health status and cutaneous toxicities were recorded weekly.
# [10] = dose 2.5 mg/kg oral to pregnant mice
# [11] = dose 10 mg/kg oral to pregnant mice
# [12] = dose 1.0 mg/kg oral to pregnant mice
# [13] = dose 25 mg/kg oral to pregnant mice
# [14] = dose 0.025 mg/kg oral to pregnant mice
# [15] = dose 0.25 mg/kg oral to pregnant mice
# [16] = dose 0.5 mg/kg oral to pregnant mice
compound,measurement,setting,value
"CC1=C(/C=C/C(C)=C\C=C\C(C)=C\C(=O)O)C(C)(C)CCC1 [9-cis-RA, 9-cis-retinoic acid]",Efficacy: percent growth inhibition relative to the untreated control,[1],24%
same,Efficacy: percent growth inhibition relative to the untreated control,[2],28%
same,rescue of Raldh2 −/− embryos (phenotype),[3]; 2.5 mg/kg to pregnant mothers,partial rescue
same,No. of −/− unrescued,[3]; [10],8
same,Teratogenesis (no. of embryos),[3]; [10],0
same,No. of −/− rescued,[3]; [11],6
same,No. of −/− unrescued,[3]; [11],1
same,Teratogenesis (no. of embryos),[3]; [11],0
same,Efficacy: percent growth inhibition relative to the untreated control,[4],45%
same,induction of apoptosis (TUNEL) in organotypic cultures,[5],Apoptosis was induced
same,Efficacy: percent growth inhibition relative to the untreated control,[6],47%
CC1=C(/C=C/C(C)=C/C=C/C(C)=C/C(=O)O)C(C)(C)CCC1 [All-trans-RA],No. of −/− rescued,[3]; [12],0
same,No. of −/− unrescued,[3]; [12],7
same,Teratogenesis (no. of embryos),[3]; [12],0
same,No. of −/− rescued,[3]; [10],13
same,No. of −/− unrescued,[3]; [10],1
same,Teratogenesis (no. of embryos),[3]; [10],0
CCOC(=O)c1ccc(OC(=O)c2ccc3c(c2)C(C)(C)CCN3C(C)C)cc1 [NHet17],topical irritancy (cutaneous toxicity score),[7],induced topical irritancy scores in a dose-responsive manner
CC1(C)CCOc2ccc(C(=O)Oc3ccc(C=NNC(N)=S)cc3)cc21 [OHet72],rescue of Raldh2 −/− embryos (phenotype),[3]; 2.5 mg/kg to pregnant mothers,no rescue
same,rescue of Raldh2 −/− embryos (phenotype),[3]; 10 or 25 mg/kg to pregnant mothers,no rescue
same,teratogenesis in litters,"[3]; any dosage (2.5, 10, 25 mg/kg)",no teratogenesis was observed
same,No. of −/− rescued,[3]; [10],0
same,No. of −/− unrescued,[3]; [10],4
same,Teratogenesis (no. of embryos),[3]; [10],0
same,No. of −/− rescued,[3]; [11],0
same,No. of −/− unrescued,[3]; [11],3
same,Teratogenesis (no. of embryos),[3]; [11],0
same,No. of −/− rescued,[3]; [13],0
same,No. of −/− unrescued,[3]; [13],5
same,Teratogenesis (no. of embryos),[3]; [13],0
same,topical irritancy (cutaneous toxicity score),[7],did not induce topical irritancy
"COC(=O)c1ccc(C(=O)Nc2ccc3c(c2)C(C)(C)CC(C)(C)S3)cc1 [SHet50, reference compound]",Efficacy: percent growth inhibition relative to the untreated control,[1],35%
same,Efficacy: percent growth inhibition relative to the untreated control,[2],15%
same,Efficacy: percent growth inhibition relative to the untreated control,[4],67%
same,ALT Activity,[8],65.5 ± 46.3 mm/liter/min
same,growth of xenograft tumors versus sesame oil control,[9],significantly inhibited the growth; also recorded: significantly less
same,induction of apoptosis (TUNEL) in organotypic cultures,[5],Apoptosis was induced
same,Efficacy: percent growth inhibition relative to the untreated control,[6],47%
CC(C=CC=C(C)c1ccc2c(c1)C(C)(C)CS2)=CC(=O)O [SHet65],topical irritancy (cutaneous toxicity score),[7],induced topical irritancy scores in a dose-responsive manner
CC(Cc1ccc(C(=O)O)cc1)c1ccc2c(c1)C(C)(C)CS2 (stereo not drawn) [SHet100],rescue of Raldh2 −/− embryos (phenotype),[3]; 0.25 mg/kg to pregnant mothers,partial rescue
same,rescue of Raldh2 −/− embryos (phenotype),[3]; 0.5 mg/kg to pregnant mothers,typical rescue phenotype
same,teratogenesis in litter,[3]; 2.5 mg/kg to pregnant mothers,teratogenic for all embryos in a litter
same,No. of −/− rescued,[3]; [14],0
same,No. of −/− unrescued,[3]; [14],2
same,Teratogenesis (no. of embryos),[3]; [14],0
same,No. of −/− unrescued,[3]; [15],0
same,Teratogenesis (no. of embryos),[3]; [15],0
same,No. of −/− rescued,[3]; [16],6
same,No. of −/− unrescued,[3]; [16],1
same,Teratogenesis (no. of embryos),[3]; [16],0
same,Teratogenesis (no. of embryos),[3]; [10],11

# — patent US20060281806A1, “Treatment and inhibition of disease conditions using flexible heteroarotinoids” (priority 2005, published 2006)
